Measurements from patent US12473295B2, “Substituted straight chain spiro derivatives” (Janssen Pharmaceutica NV, priority 2019, dated 2025).
Where a name gives a salt, the structure may show the parent alone. Read-outs that look alike come from different tables or passages of the source.

What was measured:
[1] = target: menin/MLL (terbium chelate-labeled menin, FITC-MBM1 peptide) (Homo sapiens (Human), UniProt O00255); assay: Menin/MLL homogenous time-resolved fluorescence (HTRF) assay; format: binding;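 note: IC50 from percent inhibition of HTRF signal, normalized between wells without competitor and wells with a saturating competitor that displaces FITC-MBM1 from His-tagged menin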
MOLM14 cells = assay: Proliferation assay (spheroid growth, 8 days), MOLM14; format: cell-based, human; details: MOLM14, 8 days, read-out: spheroid assay_OneTime MOLM14 IC50;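 note: spheroid size read as confluence by live-cell imaging, compounds added at a range of concentrations with 0.3% DMSO, DMSO-treated wells = 0%, highest reference dose = low control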
OCI-AML3 cells = assay: Proliferation assay (spheroid growth, 8 days), OCI-AML3; format: cell-based, human; details: OCI-AML3, 8 days
Method in brief: (§1)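 Spheroid size on day 8, taken as live-cell imaging confluence, served as readout after 8-day compound exposure (0.3% DMSO, 37 °C, 5% CO2) in round-bottom low-attachment wells. Seeding was 200 cells for MOLM14 and OCI-AML3, 300 for KO-52. IC50 came from % effect versus DMSO and reference baseline, fitted with variable slope.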

KO-52 cells = assay: Proliferation assay (spheroid growth, 8 days), KO-52 control cell line; format: cell-based, human; details: read-out: spheroid assay_OneTime KO-52 IC50
Method in brief: as §1

MEIS1 mRNA = MEIS1 mRNA expression assay (Quantigene Singleplex) in MOLM14 cells; format: cell-based, human; details: 48 hours incubation;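 note: MEIS1 transcript levels read by probe hybridization and normalized to RPL28 mRNA, with IC50 fitted to fold changes across a rising compound concentration series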
[2] = HTRF-30 min incubation IC50, 30 min incubation

menin/MLL (terbium chelate-labeled menin, FITC-MBM1 peptide), sequence (O00255 other isoform, or with tags, fused parts or gaps): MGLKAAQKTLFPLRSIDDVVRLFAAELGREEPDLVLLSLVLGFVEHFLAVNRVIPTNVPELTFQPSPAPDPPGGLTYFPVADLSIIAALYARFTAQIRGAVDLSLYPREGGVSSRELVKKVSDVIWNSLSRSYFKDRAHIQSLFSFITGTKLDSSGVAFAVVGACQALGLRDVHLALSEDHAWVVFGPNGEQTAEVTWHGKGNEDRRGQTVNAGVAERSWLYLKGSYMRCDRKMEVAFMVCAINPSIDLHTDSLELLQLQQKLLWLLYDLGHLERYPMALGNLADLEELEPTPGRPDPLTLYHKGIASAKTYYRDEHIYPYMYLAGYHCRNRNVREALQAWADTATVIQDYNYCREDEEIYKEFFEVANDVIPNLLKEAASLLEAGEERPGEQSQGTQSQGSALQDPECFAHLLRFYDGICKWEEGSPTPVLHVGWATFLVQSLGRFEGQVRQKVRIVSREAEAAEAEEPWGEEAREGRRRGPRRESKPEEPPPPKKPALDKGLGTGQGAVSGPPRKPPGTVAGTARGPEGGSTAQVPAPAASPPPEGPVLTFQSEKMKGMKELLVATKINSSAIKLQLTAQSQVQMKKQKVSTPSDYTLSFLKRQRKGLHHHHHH

Molecule | IC50 [1, 2] | IC50 (MOLM14 cells; Homo sapiens, MOLM-14, […]) | IC50 (OCI-AML3 cells; Homo sapiens, OCI-AML-3, […]) | IC50 (MEIS1 mRNA; Homo sapiens, MOLM-14, 48 h) | IC50 ([1]; read-out: HTRF-30 min incubation IC50, 30 min incubation) | IC50 (MOLM14 cells) | IC50 (OCI-AML3 cells) | IC50 (MEIS1 mRNA) | IC50 (KO-52 cells; Homo sapiens, […]) | IC50 (KO-52 cells)
CCN(C(=O)c1cc(F)ccc1Oc1nncnc1N1CCC2(C1)CN([C@H](CCCN(C)C[C@@H](C)C(=O)NC)C(C)C)C2)C(C)C [Compound 195, N-ethyl-5-fluoro-N-isopropyl-2-((5-(2-((R)-2-methyl-6-(methyl((R)-2-methyl-3-(methylamino)-3-oxopropyl)amino)hexan-3-yl)-2,6-diazaspiro[3.4]octan-6-yl)-1,2,4-triazin-6-yl)oxy)benzamide fumarate] | ~0.4 nM | 70 nM | 58 nM | 56 nM |  |  |  |  | > 15 µM | 
CCN(C(=O)c1cc(F)ccc1Oc1nncnc1N1CCC2(C1)CN([C@H](CCCN(C)C[C@H](C)C(=O)NC)C(C)C)C2)C(C)C [Compound 197, N-ethyl-5-fluoro-N-isopropyl-2-((5-(2-((R)-2-methyl-6-(methyl((S)-2-methyl-3-(methylamino)-3-oxopropyl)amino)hexan-3-yl)-2,6-diazaspiro[3.4]octan-6-yl)-1,2,4-triazin-6-yl)oxy)benzamide fumarate] | 0.3 nM | 45 nM | 36 nM | 36 nM |  |  |  |  | > 15 µM | 
CCN(C(=O)c1cc(F)ccc1Oc1nncnc1N1CCC2(C1)CN([C@H](CCCNC[C@H](O)COC)C(C)C)C2)C(C)C [Compound 284, N-ethyl-5-fluoro-2-((5-(2-((R)-6-(((S)-2-hydroxy-3-methoxypropyl)amino)-2-methylhexan-3-yl)-2,6-diazaspiro[3.4]octan-6-yl)-1,2,4-triazin-6-yl)oxy)-N-isopropylbenzamide formate] | ~0.36 nM | 23 nM | 73 nM | 50 nM |  |  |  |  | > 15 µM | 
CCN(C(=O)c1cc(F)ccc1Oc1nncnc1N1CCC2(C1)CN([C@H](CCCN(C)C[C@H](O)COC)C(C)C)C2)C(C)C [Compound 285, N-ethyl-5-fluoro-2-((5-(2-((R)-6-(((S)-2-hydroxy-3-methoxypropyl)(methyl)amino)-2-methylhexan-3-yl)-2,6-diazaspiro[3.4]octan-6-yl)-1,2,4-triazin-6-yl)oxy)-N-isopropylbenzamide formate] | 1.02 nM | 160 nM | 130 nM | 270 nM |  |  |  |  | > 15 µM | 
CCN(C(=O)c1cc(F)ccc1Oc1nncnc1N1CCC2(C1)CN(C(CC(C)(O)CN(C)CCOC)C(C)C)C2)C(C)C (stereo not drawn) [Compound 382, N-ethyl-5-fluoro-2-((5-(2-(5-hydroxy-6-((2-methoxyethyl)(methyl)amino)-2,5-dimethylhexan-3-yl)-2,6-diazaspiro[3.4]octan-6-yl)-1,2,4-triazin-6-yl)oxy)-N-isopropylbenzamide fumarate] | 0.41 nM | 140 nM | 400 nM | 150 nM |  |  |  |  | 11.8 µM | 
N-ethyl-2-((5-(2-((3*R,5*R)-6-(ethyl(methyl)amino)-5-methoxy-2-methylhexan-3-yl)-2, diazaspiro[3.4]octan-6-yl)-1,2,4-triazin-6-yl)oxy)-5-fluoro-N-isopropylbenzamide [Compound 311] |  |  |  |  | 1.01 nM | 510 nM | 2880 nM | ~630 nM |  | > 15 µM

More lines, in order of falling IC50 [1, 2], values ahead:

IC50 [1, 2] | IC50 (MOLM14 cells; Homo sapiens, MOLM-14, […]) | IC50 (OCI-AML3 cells; Homo sapiens, OCI-AML-3, […]) | IC50 (MEIS1 mRNA; Homo sapiens, MOLM-14, 48 h) | IC50 ([1]; read-out: HTRF-30 min incubation IC50, 30 min incubation) | IC50 (MOLM14 cells) | IC50 (OCI-AML3 cells) | IC50 (MEIS1 mRNA) | Molecule | IC50 (KO-52 cells; Homo sapiens, […]) | IC50 (KO-52 cells)
0.28 nM | 280 nM | 560 nM | 220 nM |  |  |  |  | CCN(C(=O)c1cc(F)ccc1Oc1nncnc1N1CCC2(C1)CN([C@H](CCCN(C)[C@H](C)CC(=O)NC)C(C)C)C2)C(C)C [Compound 191, N-ethyl-5-fluoro-N-isopropyl-2-((5-(2-((R)-2-methyl-6-(methyl((R)-4-(methylamino)-4-oxobutan-2-yl)amino)hexan-3-yl)-2,6-diazaspiro[3.4]octan-6-yl)-1,2,4-triazin-6-yl)oxy)benzamide fumarate] | > 15 µM | 
~0.26 nM | 170 nM | 290 nM | 120 nM |  |  |  |  | CCN(C(=O)c1cc(F)ccc1Oc1nncnc1N1CCC2(C1)CN([C@H](CCCN(C)[C@@H](C)CC(=O)NC)C(C)C)C2)C(C)C [Compound 193, N-ethyl-5-fluoro-N-isopropyl-2-((5-(2-((R)-2-methyl-6-(methyl((S)-4-(methylamino)-4-oxobutan-2-yl)amino)hexan-3-yl)-2,6-diazaspiro[3.4]octan-6-yl)-1,2,4-triazin-6-yl)oxy)benzamide fumarate] | > 15 µM | 
0.24 nM | 48 nM | 90 nM | 38 nM |  |  |  |  | CCN(C(=O)c1cc(F)ccc1Oc1nncnc1N1CCC2(C1)CN([C@H](CCCNC[C@@H](O)COC)C(C)C)C2)C(C)C [Compound 281, N-ethyl-5-fluoro-2-((5-(2-((R)-6-(((R)-2-hydroxy-3-methoxypropyl)amino)-2-methylhexan-3-yl)-2,6-diazaspiro[3.4]octan-6-yl)-1,2,4-triazin-6-yl)oxy)-N-isopropylbenzamide formate] | > 15 µM | 
0.16 nM | 46 nM | 250 nM | 65 nM |  |  |  |  | CCN(C(=O)c1cc(F)ccc1Oc1nncnc1N1CCC2(C1)CN([C@H](CCCN(C)CCO)C(C)C)C2)C(C)C [Compound 259, (R)-N-ethyl-5-fluoro-2-((5-(2-(6-((2-hydroxyethyl)(methyl)amino)-2-methylhexan-3-yl)-2,6-diazaspiro[3.4]octan-6-yl)-1,2,4-triazin-6-yl)oxy)-N-isopropylbenzamide fumarate] | > 15 µM | 
0.15 nM | 84 nM | 360 nM | 130 nM |  |  |  |  | CCN(C(=O)c1cc(F)ccc1Oc1nncnc1N1CCC2(C1)CN([C@H](CCCN(C)C(CO)CO)C(C)C)C2)C(C)C [Compound 256, (R)-2-((5(2-(6-((1,3-dihydroxypropan-2-yl)(methyl)amino)-2-methylhexan-3-yl)-2,6-diazaspiro[3.4]octan-6-yl)-1,2,4-triazin-6-yl)oxy)-N-ethyl-5-fluoro-N-isopropylbenzamide fumarate] | > 15 µM | 
0.13 nM | 33 nM | 59 nM | 27 nM |  |  |  |  | CCN(C(=O)c1cc(F)ccc1Oc1nncnc1N1CCC2(C1)CN([C@H](CCCN(C)C(C)CC(=O)N(C)C)C(C)C)C2)C(C)C (stereo partly drawn) [Compound 179, fumarate] | > 15 µM | 
0.079 nM | 23 nM | 44 nM | 17 nM |  |  |  |  | CCN(C(=O)c1cc(F)ccc1Oc1nncnc1N1CCC2(C1)CN([C@H](CCCN(C)CC(C)C(=O)N(C)C)C(C)C)C2)C(C)C (stereo partly drawn) [Compound 181, 2-((5-(2-((3R)-6-((3-(dimethylamino)-2-methyl-3-oxopropyl)(methyl)amino)-2-methylhexan-3-yl)-2,6-diazaspiro[3.4]octan-6-yl)-1,2,4-triazin-6-yl)oxy)-N-ethyl-5-fluoro-N-isopropylbenzamide fumarate] | 14 µM | 
0.066 nM | 36 nM | 71 nM | 29 nM |  |  |  |  | CCN(C(=O)c1cc(F)ccc1Oc1nncnc1N1CCC2(C1)CN([C@H](CCC(C)N(C)CCOC)C(C)C)C2)C(C)C (stereo partly drawn) [Compound 300, N-ethyl-5-fluoro-N-isopropyl-2-((5-(2-((3R)-6-((2-methoxyethyl)(methyl)amino)-2-methylheptan-3-yl)-2,6-diazaspiro[3.4]octan-6-yl)-1,2,4-triazin-6-yl)oxy)benzamide fumarate] | > 15 µM | 
0.054 nM | 14 nM | 46 nM | 10 nM |  |  |  |  | CCN(C(=O)c1cc(F)ccc1Oc1nncnc1N1CCC2(C1)CN([C@H](CCCN(C)C[C@@H](O)COC)C(C)C)C2)C(C)C [Compound 283, N-ethyl-5-fluoro-2-((5-(2-((R)-6-(((R)-2-hydroxy-3-methoxypropyl)(methyl)amino)-2-methylhexan-3-yl)-2,6-diazaspiro[3.4]octan-6-yl)-1,2,4-triazin-6-yl)oxy)-N-isopropylbenzamide fumarate] | > 15 µM | 
